The values that follow come from PubChem BioAssay AID1745844 (Carcinogenic Potency Database (CPDB), 2022).

Molecules are shown by their SMILES. “And” between values parts separate entries of the source, which are not always exact repeats. Equal values may be shown once. The source made the active and inactive calls. No rule for the calls is given here.

One may read the TD50 as the dose at which the toxic effect under study appears in half of the subjects.

This data set has as its system rodent lifetime carcinogenesis bioassay, tumor incidence TD50. As to the kind of experiment: chronic cancer bioassays in animals – CPDB, compiled studies (AID 1745844).
[1] abbreviates: mouse, strain ddNi, males, in feed, site: liver, lesion: adenoma-like tumor, dosed 160 weeks, study length 160 weeks.

Turning to `CCCl`, the TD50 runs as follows: (mouse, strain B6C3F1, females, inhaled, site: all sites, lesion: malignant lymphoma, histiocytic type + malignant lymphoma, mixed type + malignant lymphoma, lymphocytic type + malignant lymph, dosed 100 weeks, study length 100 weeks) 9960 mg/kg/day; (mouse, strain B6C3F1, females, inhaled, site: any site (literature study), lesion: several types, types named in the paper, dosed 100 weeks, study length 100 weeks) 1380 mg/kg/day; (mouse, strain B6C3F1, females, inhaled, site: liver, lesion: hepatocellular adenoma + hepatocellular carcinoma + neoplastic nodule, dosed 100 weeks, study length 100 weeks) 7220 mg/kg/day; (mouse, strain B6C3F1, females, inhaled, site: liver, lesion: hepatocellular adenoma + hepatocellular carcinoma, dosed 100 weeks, study length 100 weeks) 7220 mg/kg/day; (mouse, strain B6C3F1, females, inhaled, site: liver, lesion: hepatocellular carcinoma, dosed 100 weeks, study length 100 weeks) 7580 mg/kg/day; (mouse, strain B6C3F1, females, inhaled, site: lung, lesion: alveolar/bronchiolar adenoma + alveolar/bronchiolar carcinoma, dosed 100 weeks, study length 100 weeks) 8640 mg/kg/day. The TD50 (mouse, strain B6C3F1, females, inhaled, site: uterus, lesion: carcinoma, dosed 100 weeks, study length 100 weeks) is 1810 mg/kg/day; the TD50 (mouse, strain B6C3F1, males, inhaled, site: any site (literature study), lesion: several types, types named in the paper, dosed 100 weeks, study length 100 weeks) was determined as 10100 mg/kg/day; the TD50 (mouse, strain B6C3F1, males, inhaled, site: liver, lesion: hepatocellular adenoma + hepatocellular carcinoma + neoplastic nodule, dosed 100 weeks, study length 100 weeks) worked out at 34100 mg/kg/day; the TD50 (mouse, strain B6C3F1, males, inhaled, site: lung, lesion: alveolar/bronchiolar adenoma + alveolar/bronchiolar carcinoma, dosed 100 weeks, study length 100 weeks) came to 9910 mg/kg/day; the TD50 (mouse, strain B6C3F1, males, inhaled, site: lung, lesion: alveolar/bronchiolar adenoma, dosed 100 weeks, study length 100 weeks) was determined as 12700 mg/kg/day; the TD50 (rat, strain Fischer 344, females, inhaled, site: any site (literature study), lesion: several types, types named in the paper, dosed 102 weeks, study length 105 weeks) was 2660 mg/kg/day. Besides, the TD50 is, setting by setting: (rat, strain Fischer 344, females, inhaled, site: brain, lesion: astrocytoma, malignant, dosed 102 weeks, study length 105 weeks) 21000 mg/kg/day; (rat, strain Fischer 344, females, inhaled, site: uterus, lesion: endometrial stromal polyp, dosed 102 weeks, study length 105 weeks) 10200 mg/kg/day; (rat, strain Fischer 344, males, inhaled, site: any site (literature study), lesion: several types, types named in the paper, dosed 102 weeks, study length 105 weeks) 1600 mg/kg/day; (rat, strain Fischer 344, males, inhaled, site: liver, lesion: hepatocellular adenoma + hepatocellular carcinoma + neoplastic nodule, dosed 102 weeks, study length 105 weeks) 47700 mg/kg/day; (rat, strain Fischer 344, males, inhaled, site: skin, lesion: basal-cell carcinoma + sebaceous adenoma + trichoepithelioma, dosed 102 weeks, study length 105 weeks) 3210 mg/kg/day; (rat, strain Fischer 344, males, inhaled, site: skin, lesion: basal-cell carcinoma, dosed 102 weeks, study length 105 weeks) 4970 mg/kg/day.

As to `O`, the TD50 is 806 mg/kg/day (inactive) (mouse, strain B6C3F1, females, in drinking water, site: any site (literature study), lesion: several types, types named in the paper, dosed 104 weeks, study length 105 weeks); 4410 mg/kg/day (mouse, strain B6C3F1, females, in drinking water, site: liver, lesion: hepatocellular adenoma + hepatoblastoma + hepatocellular carcinoma, dosed 104 weeks, study length 105 weeks); 13400 mg/kg/day (mouse, strain B6C3F1, females, in drinking water, site: lung, lesion: alveolar/bronchiolar adenoma + alveolar/bronchiolar carcinoma, dosed 104 weeks, study length 105 weeks); 57500 mg/kg/day (inactive) (mouse, strain B6C3F1, females, in feed, site: liver, lesion: hemangiosarcoma, dosed 96 weeks, study length 104 weeks); 60500 mg/kg/day (inactive) (mouse, strain B6C3F1, females, in feed, site: liver, lesion: hyperplastic nodule, dosed 96 weeks, study length 104 weeks); 260000 mg/kg/day (inactive) (mouse, strain B6C3F1, females, in feed, site: lung, lesion: adenocarcinoma, dosed 96 weeks, study length 104 weeks). For the same compound, the TD50 runs as follows: (mouse, strain B6C3F1, females, in feed, site: lung, lesion: adenoma, dosed 96 weeks, study length 104 weeks) 100000 mg/kg/day (inactive); (mouse, strain B6C3F1, males, in drinking water, site: all sites, lesion: hemangioma, dosed 103 weeks, study length 103 weeks) 3470 mg/kg/day (inactive); (mouse, strain B6C3F1, males, in feed, site: all sites, lesion: lymphoma and leukemia, combined, dosed 96 weeks, study length 104 weeks) 10700 mg/kg/day (inactive); (mouse, strain B6C3F1, males, in feed, site: liver, lesion: hemangioma, dosed 96 weeks, study length 104 weeks) 24400 mg/kg/day (inactive); (mouse, strain B6C3F1, males, in feed, site: liver, lesion: hemangiosarcoma, dosed 96 weeks, study length 104 weeks) 46700 mg/kg/day (inactive); (mouse, strain B6C3F1, males, in feed, site: lung, lesion: adenoma, dosed 96 weeks, study length 104 weeks) 87600 mg/kg/day (inactive). Further, the carcinogen call reads like this: (mouse, strain B6C3F1, females, in feed, site: all sites, lesion: lymphoma and leukemia, combined, dosed 96 weeks, study length 104 weeks) “negative (inactive)”; (mouse, strain B6C3F1, females, in feed, site: liver, lesion: hemangioma, dosed 96 weeks, study length 104 weeks) “negative (inactive)”; (mouse, strain B6C3F1, females, in feed, site: liver, lesion: hepatocellular carcinoma, dosed 96 weeks, study length 104 weeks) “negative (inactive)”; (mouse, strain B6C3F1, males, in feed, site: liver, lesion: hepatocellular carcinoma, dosed 96 weeks, study length 104 weeks) “negative (inactive)”; (mouse, strain B6C3F1, males, in feed, site: liver, lesion: hyperplastic nodule, dosed 96 weeks, study length 104 weeks) “negative (inactive)”; (mouse, strain B6C3F1, males, in feed, site: lung, lesion: adenocarcinoma, dosed 96 weeks, study length 104 weeks) “negative (inactive)”. The carcinogen call reads like this: (rat, strain Fischer 344, females, in drinking water, site: any site (literature study), lesion: several types, types named in the paper, dosed 105 weeks, study length 105 weeks) “negative (inactive)”; (rat, strain Fischer 344, males, in drinking water, site: any site (literature study), lesion: several types, types named in the paper, dosed 104 weeks, study length 104 weeks) “negative (inactive)”.

Take `Clc1ccc(-c2ccc(Cl)c(Cl)c2Cl)c(Cl)c1Cl`: the TD50 by setting is: (rat, strain Sherman COBS, females, in feed, site: liver, lesion: hepatocellular carcinoma, dosed 89 weeks, study length 95 weeks) 18.3 mg/kg/day; (rat, strain Sherman COBS, females, in feed, site: liver, lesion: neoplastic nodule, dosed 89 weeks, study length 95 weeks) 1.76 mg/kg/day; (rat, strain Sherman COBS, females, in feed, site: liver, lesion: several types, types named in the paper, dosed 89 weeks, study length 95 weeks) 1.04 mg/kg/day; (rat, strain Sprague-Dawley, females, in feed, site: liver, lesion: cholangioma, dosed 104 weeks, study length 104 weeks) 98.2 mg/kg/day; (rat, strain Sprague-Dawley, females, in feed, site: liver, lesion: hepatocellular adenoma, dosed 104 weeks, study length 104 weeks) 6.43 mg/kg/day; (rat, strain Sprague-Dawley, females, in feed, site: liver, lesion: hepatocellular carcinoma, dosed 104 weeks, study length 104 weeks) 41.4 mg/kg/day. Besides, the TD50 was 5.51 mg/kg/day (rat, strain Sprague-Dawley, females, in feed, site: liver, lesion: several types, types named in the paper, dosed 104 weeks, study length 104 weeks); 24.8 mg/kg/day (rat, strain Sprague-Dawley, males, in feed, site: liver, lesion: hepatocellular adenoma, dosed 104 weeks, study length 104 weeks); 121 mg/kg/day (rat, strain Sprague-Dawley, males, in feed, site: liver, lesion: hepatocellular carcinoma, dosed 104 weeks, study length 104 weeks); 20 mg/kg/day (rat, strain Sprague-Dawley, males, in feed, site: liver, lesion: several types, types named in the paper, dosed 104 weeks, study length 104 weeks); 11.4 mg/kg/day (rat, strain Sprague-Dawley, males, in feed, site: thyroid gland, lesion: follicular-cell adenoma, dosed 104 weeks, study length 104 weeks); 232 mg/kg/day (rat, strain Sprague-Dawley, males, in feed, site: thyroid gland, lesion: follicular-cell carcinoma, dosed 104 weeks, study length 104 weeks). Also, the TD50 was 10.3 mg/kg/day (rat, strain Sprague-Dawley, males, in feed, site: thyroid gland, lesion: several types, types named in the paper, dosed 104 weeks, study length 104 weeks) and 5.39 mg/kg/day (rat, strain Wistar, males, in feed, site: liver, lesion: hepatocellular carcinoma, dosed 116 weeks, study length 116 weeks).

For `Cc1cc(O)c2c(c1O)C(=O)C13C(=C2O)C(=O)C2C(O)C1C1C(O)C3C(=O)C3=C(O)c4c(O)cc(C)c(O)c4C(=O)C321` (configuration not stated), the TD50 reads like this: (mouse, strain ddNi, females, in feed, site: liver, lesion: liver-cell adenoma, dosed 160 weeks, study length 160 weeks) 122 mg/kg/day; (mouse, strain ddNi, females, in feed, site: liver, lesion: liver-cell carcinoma, dosed 160 weeks, study length 160 weeks) 248 mg/kg/day; (mouse, strain ddNi, females, in feed, site: liver, lesion: several types, types named in the paper, dosed 160 weeks, study length 160 weeks) 79.4 mg/kg/day; under setting [1], 113 mg/kg/day; (mouse, strain ddNi, males, in feed, site: liver, lesion: hepatoma, dosed 160 weeks, study length 160 weeks) 89.5 mg/kg/day and 74.3 mg/kg/day and 113 mg/kg/day; (mouse, strain ddNi, males, in feed, site: liver, lesion: liver-cell adenoma, dosed 160 weeks, study length 160 weeks) 83.7 mg/kg/day and 25.1 mg/kg/day and 231 mg/kg/day. The TD50 is 332 mg/kg/day (mouse, strain ddNi, males, in feed, site: liver, lesion: liver-cell carcinoma, dosed 160 weeks, study length 160 weeks) and 14.8 mg/kg/day (mouse, strain ddNi, males, in feed, site: liver, lesion: several types, types named in the paper, dosed 160 weeks, study length 160 weeks). Also, the carcinogen call under setting [1] was “positive”.

For `CN(N=O)c1ncnc2nc[nH]c12`, the TD50 reads like this: (mouse, strain Swiss CD-1, females, in drinking water, site: liver, lesion: several types, types named in the paper, dosed 104 weeks, study length 104 weeks) 63.2 mg/kg/day; (mouse, strain Swiss CD-1, females, in drinking water, site: mammary gland, lesion: carcinoma, dosed 104 weeks, study length 104 weeks) 28.7 mg/kg/day; (mouse, strain Swiss CD-1, females, in drinking water, site: reproductive tract, lesion: several types, types named in the paper, dosed 104 weeks, study length 104 weeks) 15.8 mg/kg/day; (mouse, strain Swiss CD-1, females, in drinking water, site: uterus, lesion: one or several types, types not named, dosed 104 weeks, study length 104 weeks) 84.9 mg/kg/day; (mouse, strain Swiss CD-1, males, in drinking water, site: liver, lesion: several types, types named in the paper, dosed 104 weeks, study length 104 weeks) 62.6 mg/kg/day; (mouse, strain Swiss CD-1, males, in drinking water, site: lung, lesion: one or several types, types not named, dosed 104 weeks, study length 104 weeks) 18 mg/kg/day and 21.6 mg/kg/day.
